For the experiment, the target named is T1, human PAH with the R408W mutation (A375 R408W cells) (Homo sapiens, UniProt P00439, R408W).
T1 construct: expressed in transfected cells
T1 sequence (P00439 1-452 R408W): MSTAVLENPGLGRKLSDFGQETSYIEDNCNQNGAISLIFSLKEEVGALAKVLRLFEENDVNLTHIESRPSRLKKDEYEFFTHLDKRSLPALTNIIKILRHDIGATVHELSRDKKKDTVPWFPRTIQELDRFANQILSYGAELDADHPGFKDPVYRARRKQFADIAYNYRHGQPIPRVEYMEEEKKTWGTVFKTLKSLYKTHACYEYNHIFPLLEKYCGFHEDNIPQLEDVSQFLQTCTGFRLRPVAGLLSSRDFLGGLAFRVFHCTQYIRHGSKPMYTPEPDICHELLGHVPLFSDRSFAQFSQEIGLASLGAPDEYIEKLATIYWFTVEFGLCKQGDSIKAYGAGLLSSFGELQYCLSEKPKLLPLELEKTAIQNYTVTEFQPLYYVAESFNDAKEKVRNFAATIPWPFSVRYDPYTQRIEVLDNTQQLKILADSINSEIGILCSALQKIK
Kind of experiment: Cell Based Phenylalanine Flux Assay. Particulars: 24 hrs with compound, then 20 μM sepiapterin and 800 μM 13C9,15N-Phenylalanine for 4 hours, 13C-Tyrosine by LC-MS, average where tested multiple times. Here is the method:
Cells expressing R408W PAH were made by transducing A375 cells with lentivirus encoding human PAH with the R408W mutation in pLVX-Puro, then selecting with puromycin until stable cell lines were generated. A375 R408W cells were seeded into 96 well plates in DMEM+10% FBS at a density of 40,000 cells/well one hour prior to compound addition. Compounds were resuspended in DMSO, and 2-fold serial dilutions were performed to generate a 10-point dose curve. Compounds were added to plated cells in a total volume of 100 μl, and a final DMSO concentration of 0.5%. Each compound was tested in duplicate. Following compound addition, cells were placed in a 5% CO2, 37° C. tissue culture incubator for 24 hrs. After the incubation period, 20 μM sepiapterin and 800 μM 13C9,15N-Phenylalanine were added. After 4 hours, cell media was removed. An aliquot of 10 μl of cell media was combined with 200 μl of extraction buffer (80% acetonitrile/20% H2O) for each well. Determination of ^13C-Tyrosine concentration was assessed by liquid chromatography mass spectrometry.
Specific compounds disclosed herein were tested in the foregoing assay and they were determined to have an AC50 according to the following scores: (A) less than or equal to 0.500 μM, (B) greater than 0.500 and less than […], (C) greater than or equal to 1.000 and less than 5.000 μM, (D) greater than or equal to 5.000 μM, (E) no fit, and (NT) not tested, as shown below. Where a compound was tested multiple times, the average value of the tests is reported.

[1] abbreviates: A375 cells expressing R408W PAH.

For orientation: AC50 means the midpoint of the concentration-response curve, whichever way the signal moves. `O=C(c1cncs1)N1CCc2[nH]cnc2C1c1nc2cc(F)ccc2o1` (stereo not shown): the AC50 under setting [1] is 1000 to 5000 nM.

On to `O=C(c1cnn(-c2ccccn2)c1)N1CCc2[nH]cnc2[C@@H]1c1nc2cc(F)ccc2o1` [Example 880, (R)-(4-(5-fluorobenzo[d]oxazol-2-yl)-6,7-dihydro-1H-imidazo[4,5-c]pyridin-5(4H)-yl)(1-(pyridin-2-yl)-1H-pyrazol-4-yl)methanone], for which the AC50 (A375 R408W cells) was in the range of 1000 to 5000 nM.

`O=C(c1oc(-c2cncnc2)nc1C(F)F)N1CCc2[nH]cnc2[C@H]1c1nc2cccc(F)c2o1` [Example 742, (S)-(4-(difluoromethyl)-2-(pyrimidin-5-yl)oxazol-5-yl)(4-(7-fluorobenzo[d]oxazol-2-yl)-6,7-dihydro-1H-imidazo[4,5-c]pyridin-5(4H)-yl)methanone]: the AC50 (A375 R408W cells) was ≤ 500 nM.

With `COCCNc1ccc2c(C(=O)N3CCc4[nH]cnc4C3c3nc4cc(F)ccc4o3)cnn2c1` (stereo not shown), the AC50 under setting [1] was ≥ 5000 nM.

With `O=C(c1cnn2cc(N3CCN(CC(F)(F)F)CC3)ccc12)N1CCc2[nH]cnc2C1c1nc2cc(F)ccc2o1` (stereo not shown), under setting [1], the AC50 was in the range of 1000 to 5000 nM.

Consider `O=C(c1cnn2cc(N3CCC(O)CC3)ccc12)N1CCc2[nH]cnc2C1c1nc2c(F)c(F)ccc2o1` (stereo not shown), for which the AC50 under setting [1] is ≥ 5000 nM.

Take `O=C(c1cnn2cc(CN3CCOCC3)ccc12)N1CCc2[nH]cnc2C1c1nc2cc(F)ccc2o1` (stereo not shown): under setting [1], the AC50 lay in the range of 1000 to 5000 nM.

With `O=C(c1oc(-c2ccc(F)cn2)nc1C(F)F)N1CCc2[nH]cnc2[C@H]1c1nc2cc(F)ccc2o1` [Example 418, (S)-(4-(difluoromethyl)-2-(5-fluoropyridin-2-yl)oxazol-5-yl)(4-(5-fluorobenzo[d]oxazol-2-yl)-6,7-dihydro-1H-imidazo[4,5-c]pyridin-5(4H)-yl)methanone], the AC50 (A375 R408W cells) is ≤ 500 nM.

In the case of `Cn1nc(Cl)nc1C(=O)N1CCc2[nH]cnc2[C@H]1c1nc2ccc(F)cc2o1` [Example 343, (S)-(3-chloro-1-methyl-1H-1,2,4-triazol-5-yl)(4-(6-fluorobenzo[d]oxazol-2-yl)-6,7-dihydro-1H-imidazo[4,5-c]pyridin-5(4H)-yl)methanone], the AC50 (A375 R408W cells) is 1000 to 5000 nM.

Regarding `CC(C)(O)c1nc(C(F)F)c(C(=O)N2CCc3[nH]cnc3[C@@H]2c2nc3cccc(Br)c3o2)o1` [Example 459, (R)-(4-(7-bromobenzo[d]oxazol-2-yl)-6,7-dihydro-1H-imidazo[4,5-c]pyridin-5(4H)-yl)(4-(difluoromethyl)-2-(2-hydroxypropan-2-yl)oxazol-5-yl)methanone], the AC50 (A375 R408W cells) is ≤ 500 nM.

On to `Cc1ncoc1C(=O)N1CCc2[nH]cnc2C1c1nc2cc(F)ccc2o1` (stereo not shown), for which, under setting [1], the AC50 was ≥ 5000 nM.

On to `COCc1ccc2c(C(=O)N3CCc4[nH]cnc4C3c3nc4ccc(C)cc4o3)cnn2c1` (stereo not shown) [listing 1 of 2 here], for which, under setting [1], the AC50 was in the range of 1000 to 5000 nM.

Regarding `CC(C)(O)c1nc(Br)c(C(=O)N2CCc3[nH]cnc3C2c2nc3cc(F)ccc3o2)s1` (stereo not shown), under setting [1], the AC50 was 1000 to 5000 nM.

Regarding `Cc1ccc2oc([C@H]3c4nc[nH]c4CCN3C(=O)c3nnc(-c4cn[nH]c4)o3)nc2c1` [Example 492, (R)-(5-(1H-pyrazol-4-yl)-1,3,4-oxadiazol-2-yl)(4-(5-methylbenzo[d]oxazol-2-yl)-6,7-dihydro-1H-imidazo[4,5-c]pyridin-5(4H)-yl)methanone], the AC50 (A375 R408W cells) was in the range of 1000 to 5000 nM.

As to `CC(C)(O)c1nnc(C(=O)N2CCc3[nH]cnc3C2c2nc3cc(F)ccc3o2)o1` (stereo not shown), under setting [1], the AC50 was in the range of 1000 to 5000 nM.

As for `Cn1cc(C(=O)N2CCc3[nH]cnc3C2c2nc3cc(F)ccc3o2)c(Cl)n1` (stereo not shown), the AC50 under setting [1] lay in the range of 1000 to 5000 nM.

On to `O=C(c1cnn2cc(N3CCOCC3)c(Cl)cc12)N1CCc2[nH]cnc2[C@H]1c1nc2cc(F)ccc2o1` [Example 175, (S)-(5-chloro-6-morpholinopyrazolo[1,5-a]pyridin-3-yl)(4-(5-fluorobenzo[d]oxazol-2-yl)-6,7-dihydro-1H-imidazo[4,5-c]pyridin-5(4H)-yl)methanone], for which, where the note is “A375 R408W cells”, the AC50 fell in the range of 500 to 1000 nM.

With `Cc1nc(-c2cnn(C)c2)oc1C(=O)N1CCc2[nH]cnc2[C@@H]1c1nc2cccc(F)c2o1` [Example 595, (R)-(4-(7-fluorobenzo[d]oxazol-2-yl)-6,7-dihydro-1H-imidazo[4,5-c]pyridin-5(4H)-yl)(4-methyl-2-(1-methyl-1H-pyrazol-4-yl)oxazol-5-yl)methanone], the AC50 (A375 R408W cells) lay in the range of 1000 to 5000 nM.

With `COc1cccc2nc([C@@H]3c4nc[nH]c4CCN3C(=O)c3nc(C)nn3C)oc12` [Example 909, (S)-(1,3-dimethyl-1H-1,2,4-triazol-5-yl)(4-(7-methoxybenzo[d]oxazol-2-yl)-6,7-dihydro-1H-imidazo[4,5-c]pyridin-5(4H)-yl)methanone], the AC50 (A375 R408W cells) lay in the range of 1000 to 5000 nM.

On to `COCc1ccc2c(C(=O)N3CCc4[nH]cnc4C3c3nc4ccc(C)cc4o3)cnn2c1` (stereo not shown) [listing 2 of 2 here], for which the AC50 under setting [1] is ≥ 5000 nM.

Turning to `Cn1cncc1-c1nnc(C(=O)N2CCc3[nH]cnc3C2c2nc3cccc(C(F)(F)F)c3o2)o1` (stereo not shown), the AC50 under setting [1] lay within 1000 to 5000 nM.

For `Cn1cnnc1C(=O)N1CCc2[nH]cnc2C1c1nc2cccc(F)c2o1` (stereo not shown), the AC50 under setting [1] is 1000 to 5000 nM.

As for `COC(=O)Nc1ccc2c(C(=O)N3CCc4[nH]cnc4C3c3nc4cc(F)ccc4o3)cnn2c1` (stereo not shown), the AC50 under setting [1] lay within 1000 to 5000 nM.

As to `CN1CCN(c2nc(C(F)F)c(C(=O)N3CCc4[nH]cnc4[C@@H]3c3nc4cc(F)ccc4o3)o2)CC1` [Example 404, (R)-(4-(difluoromethyl)-2-(4-methylpiperazin-1-yl)oxazol-5-yl)(4-(5-fluorobenzo[d]oxazol-2-yl)-6,7-dihydro-1H-imidazo[4,5-c]pyridin-5(4H)-yl)methanone], under “A375 R408W cells”, the AC50 lay within 1000 to 5000 nM.

As for `CC(C)(O)c1nc(C(F)F)c(C(=O)N2CCc3[nH]cnc3[C@H]2c2nc3c(Br)cccc3o2)o1` [Example 431, (S)-(4-(4-bromobenzo[d]oxazol-2-yl)-6,7-dihydro-1H-imidazo[4,5-c]pyridin-5(4H)-yl)(4-(difluoromethyl)-2-(2-hydroxypropan-2-yl)oxazol-5-yl)methanone], the AC50 (A375 R408W cells) was ≤ 500 nM.

On to `O=C(c1ccn(-c2ccccn2)n1)N1CCc2[nH]cnc2C1c1nc2ccccc2o1` (stereo not shown), for which the AC50 under setting [1] lay within 1000 to 5000 nM.

Regarding `Cc1ncoc1C(=O)N1CCc2[nH]cnc2[C@@H]1c1nc2ccccc2o1` [Example 794, (R)-(4-(benzo[d]oxazol-2-yl)-6,7-dihydro-1H-imidazo[4,5-c]pyridin-5(4H)-yl)(4-methyloxazol-5-yl)methanone], the AC50 (A375 R408W cells) lay in the range of 1000 to 5000 nM.

For the compound `CC(C)(O)c1cc(C(=O)N2CCc3[nH]cnc3C2c2nc3cccc(F)c3o2)no1` (stereo not shown), the AC50 under setting [1] lay within 1000 to 5000 nM.

Turning to `Cc1nc(-c2cnn(C)c2)oc1C(=O)N1CCc2[nH]cnc2[C@H]1c1nc2cccc(F)c2o1` [Example 596, (S)-(4-(7-fluorobenzo[d]oxazol-2-yl)-6,7-dihydro-1H-imidazo[4,5-c]pyridin-5(4H)-yl)(4-methyl-2-(1-methyl-1H-pyrazol-4-yl)oxazol-5-yl)methanone], the AC50 (A375 R408W cells) was ≤ 500 nM.

Turning to `O=C(c1cnn2cc(OCCn3cccn3)ccc12)N1CCc2[nH]cnc2C1c1nc2cc(F)ccc2o1` (stereo not shown), the AC50 under setting [1] was ≥ 5000 nM.

For `c1ccc2oc([C@H]3c4nc[nH]c4CN3c3nc4ccccc4o3)nc2c1` (single isomer, unassigned) [Example 932], the AC50 (A375 R408W cells) is 1000 to 5000 nM.

Regarding `CC(F)(F)c1ncoc1C(=O)N1CCc2[nH]cnc2[C@@H]1c1nc2cccc(F)c2o1` [Example 619, (R)-(4-(1,1-difluoroethyl)oxazol-5-yl)(4-(7-fluorobenzo[d]oxazol-2-yl)-6,7-dihydro-1H-imidazo[4,5-c]pyridin-5(4H)-yl)methanone], the AC50 (A375 R408W cells) was 1000 to 5000 nM.

With `Cc1cccc2nc([C@H]3c4nc[nH]c4CCN3C(=O)c3nnc(-c4ncccc4F)o3)oc12` [Example 857, (R)-(5-(3-fluoropyridin-2-yl)-1,3,4-oxadiazol-2-yl)(4-(7-methylbenzo[d]oxazol-2-yl)-6,7-dihydro-1H-imidazo[4,5-c]pyridin-5(4H)-yl)methanone], where the note is “A375 R408W cells”, the AC50 fell in the range of 1000 to 5000 nM.

`O=C(c1nnc(-c2ccccn2)o1)N1CCc2[nH]cnc2[C@H]1c1nc2cccc(F)c2o1` [Example 335, (S)-(4-(7-fluorobenzo[d]oxazol-2-yl)-6,7-dihydro-1H-imidazo[4,5-c]pyridin-5(4H)-yl)(5-(pyridin-2-yl)-1,3,4-oxadiazol-2-yl)methanone]: the AC50 (A375 R408W cells) is ≤ 500 nM.

The record behind these values is patent US20250171437A1 (Agios Pharmaceuticals,Inc., priority 2022, published 2025).
